The source of these data is ChEMBL document CHEMBL6114991, “Design, synthesis, and biological evaluation of novel quinoline carboxylic acid based styryl/alkyne hybrid molecule as a potent anti-adipogenic and antidyslipidemic agent via activation of Wnt/β-catenin pathway” (Eur J Med Chem, 2025).

For series [1], the system named is 3T3-L1. The series is described as follows: Anti-adipogenic activity in mouse 3T3-L1 cells at 20 uM relative to control. In kind it is functional.
For series [2], the system named is 3T3-L1. Briefly: Anti-adipogenic activity in mouse 3T3-L1 cells assessed as suppression of adipogenesis at 20 uM measured for 72 hrs by oil red O staining based analysis. The class given is functional.
Series [3] has as its system 3T3-L1. Briefly: Cytotoxicity against mouse 3T3-L1 cells assessed as cell viability at 20 uM incubated for 48 hrs by MTT assay. In kind it is toxicity, cell-based. Particulars: 3t3-l1, 48 h.
Series [4] deals with 3T3-L1. The series is described as follows: Anti-adipogenic activity in mouse 3T3-L1 cells assessed as suppression of adipogenesis at 30 uM measured for 72 hrs by oil red O staining based analysis. In kind it is functional, cell-based.
For series [5], the system named is 3T3-L1. Briefly: Anti-adipogenic activity in MDI-induced mouse 3T3-L1 cells assessed as suppression of adipogenesis at 0.3 uM by oil red O staining based analysis. In kind it is functional, cell-based. The conditions noted are these: time 72.0 hrs.
Series [6] relates to 3T3-L1. The series is described as follows: Cytotoxicity against mouse 3T3-L1 cells assessed as cell viability at 30 uM incubated for 48 hrs by MTT assay. The class given is toxicity, cell-based. The conditions noted are these: 3t3-l1, 48 h. For orientation: Tetrazolium assays rely on reduction of a dye to a coloured formazan, in cell work by metabolically active cells.
For series [7], the system named is 3T3-L1. The series is described as follows: Anti-adipogenic activity in mouse 3T3-L1 cells assessed as reduction in lipid accumulation at 10 uM by microscopic analysis. In kind it is functional, cell-based.

The source made the active and inactive calls. No cut-off for these calls is given here.

As for `Cc1ccc(/C=C/c2ccc(-c3cc(C(=O)O)c4ccccc4n3)cc2)cc1`, the Activity with 3T3-L1 [1] (time 72 hrs) was 68%; in the series with 3T3-L1 [2], 70%; in the series with 3T3-L1 [3], “Non-toxic”; with 3T3-L1 [6], “Toxic”. Also, the outcome in the series with 3T3-L1 [4] was Active. Also, the outcome with 3T3-L1 [5] was inactive.

With `COc1ccc2nc(-c3ccc(/C=C/c4ccc(C)cc4)cc3)cc(C(=O)O)c2c1`, in the series with 3T3-L1 [1] (time 72.0 hrs), the result was inactive. The values for the Activity in the series on 3T3-L1 [2] and in the series on 3T3-L1 [3] were 70% and “Non-toxic”, respectively.

For the compound `Cc1ccc(/C=C/c2ccc(-c3cc(C(=O)O)c4cccc(Cl)c4n3)cc2)cc1`, in the series on 3T3-L1 [1] (time 72.0 hrs), the result was inactive.

In the case of `CC(C)(C)c1ccc(/C=C/c2ccc(-c3cc(C(=O)O)c4ccccc4n3)cc2)cc1`, the Activity in the series on 3T3-L1 [1] (time 72 hrs) is 67%; in the series with 3T3-L1 [2] it was 70%; with 3T3-L1 [3], “Non-toxic”.

As to `CCCCCCCCOC(=O)c1cc(-c2ccc(/C=C/c3ccc(C)cc3)cc2)nc2ccc(F)cc12`, in the series with 3T3-L1 [1] (time 72.0 hrs), the outcome was inactive. Also, the Activity entry in the series with 3T3-L1 [3] was “Toxic”.

With `Cc1ccc(/C=C/c2ccc(-c3cc(C(=O)O)c4cc(OC(F)(F)F)ccc4n3)cc2)cc1`, the outcome with 3T3-L1 [1] (time 72.0 hrs) was inactive.

Regarding `CCOC(=O)c1cc(-c2ccc(/C=C/c3ccc(C)cc3)cc2)nc2ccc(F)cc12`, in the series with 3T3-L1 [1] (time 72.0 hrs), the outcome was inactive. Also, the Activity entry in the series with 3T3-L1 [3] is reported as “Toxic”.

In the case of `CCCCCOC(=O)c1cc(-c2ccc(/C=C/c3ccc(C)cc3)cc2)nc2ccc(F)cc12`, in the series on 3T3-L1 [1] (time 72.0 hrs), the outcome was inactive. Further, the Activity entry in the series with 3T3-L1 [3] was “Toxic”.

As for `Cc1cccc(C#Cc2ccc(-c3cc(C(=O)O)c4ccccc4n3)cc2)c1`, the figures for the Activity with 3T3-L1 [1] (time 72 hrs) and in the series with 3T3-L1 [3] were 68% and “Toxic”, respectively.

Turning to `O=C(O)c1cc(-c2ccc(/C=C/c3ccc(Cl)cc3)cc2)nc2ccccc12`, the result in the series on 3T3-L1 [1] (time 72.0 hrs) was inactive.

Consider `Cc1cc([N+](=O)[O-])ccc1NS(=O)(=O)c1cc(Cl)ccc1Cl`, for which the outcome with 3T3-L1 [7] was Active.

For the compound `COc1ccc(C#Cc2ccc(-c3cc(C(=O)O)c4ccccc4n3)cc2)cc1`, the Activity in the series with 3T3-L1 [1] (time 72 hrs) is recorded as 69%; with 3T3-L1 [3], “Toxic”.

As for `CC(C)(C)c1ccc(C#Cc2ccc(-c3cc(C(=O)O)c4ccccc4n3)cc2)cc1`, the Activity is 69% with 3T3-L1 [1] (time 72 hrs), 70% in the series on 3T3-L1 [2], “Non-toxic” in the series with 3T3-L1 [3] and “Toxic” in the series on 3T3-L1 [6]. Also, the outcome in the series with 3T3-L1 [5] was Active.

On to `O=C(O)c1cc(-c2ccc(/C=C/c3ccncc3)cc2)nc2ccccc12`, for which the outcome in the series on 3T3-L1 [1] (time 72.0 hrs) was inactive. Also, the result with 3T3-L1 [5] was Active. In addition, in the series on 3T3-L1 [6], the Activity result is listed as “Toxic”.

As for `O=C(O)c1ccc(/C=C/c2ccc(-c3cc(C(=O)O)c4ccccc4n3)cc2)cc1`, in the series with 3T3-L1 [1] (time 72.0 hrs), the outcome was inactive. The Activity result with 3T3-L1 [3] is given as “Toxic”.

In the case of `O=C(O)c1cc(-c2ccc(/C=C/c3ccccc3)cc2)nc2ccccc12`, the result in the series on 3T3-L1 [1] (time 72.0 hrs) was inactive.

`Cc1ccc(C#Cc2ccc(-c3cc(C(=O)O)c4ccccc4n3)cc2)cc1` had an Activity with 3T3-L1 [1] (time 72 hrs) of 74%.

For the compound `CCCCOC(=O)c1cc(-c2ccc(/C=C/c3ccc(C)cc3)cc2)nc2ccc(F)cc12`, in the series with 3T3-L1 [1] (time 72.0 hrs), the outcome was inactive. In the series with 3T3-L1 [3], the Activity result was “Toxic”.

As for `COC(=O)c1cc(-c2ccc(/C=C/c3ccc(C)cc3)cc2)nc2ccc(F)cc12`, in the series on 3T3-L1 [1] (time 72.0 hrs), the outcome was inactive. For the same compound, the Activity result in the series on 3T3-L1 [3] is recorded as “Toxic”.

On to `CCCCCCOC(=O)c1cc(-c2ccc(/C=C/c3ccc(C)cc3)cc2)nc2ccc(F)cc12`, for which the outcome in the series with 3T3-L1 [1] (time 72.0 hrs) was inactive. Besides, the Activity entry with 3T3-L1 [3] was “Toxic”.

As to `Cc1ccc(/C=C/c2ccc(-c3cc(C(=O)O)c4cc(C)cc(Cl)c4n3)cc2)cc1`, the outcome in the series on 3T3-L1 [1] (time 72.0 hrs) was inactive.

Take `O=C(O)c1cc(-c2ccc(/C=C/c3ccc4ccccc4c3)cc2)nc2ccccc12`: the outcome with 3T3-L1 [1] (time 72.0 hrs) was inactive.

For the compound `O=C(O)c1cc(-c2ccc(/C=C/c3ccccn3)cc2)nc2ccccc12`, the outcome with 3T3-L1 [1] (time 72.0 hrs) was inactive.

As to `O=C(O)c1cc(-c2ccc(C#Cc3ccccc3)cc2)nc2ccccc12`, in the series with 3T3-L1 [1] (time 72.0 hrs), the result was inactive.

As for `O=C(O)c1cc(-c2ccc(C#Cc3ccc(F)cc3)cc2)nc2ccccc12`, in the series on 3T3-L1 [1] (time 72.0 hrs), the result was inactive. Besides, in the series with 3T3-L1 [3], the Activity entry is reported as “Toxic”.

For `Cc1ccc(/C=C/c2ccc(-c3cc(C(=O)O)c4cc(Cl)ccc4n3)cc2)cc1`, the values for the Activity in the series with 3T3-L1 [1] (time 72 hrs) and in the series on 3T3-L1 [3] were 76% and “Toxic”, respectively.

For `Cc1ccc(/C=C/c2ccc(-c3cc(C(=O)O)c4cc(C)ccc4n3)cc2)cc1`, the outcome in the series with 3T3-L1 [1] (time 72.0 hrs) was inactive.

With `CCCOC(=O)c1cc(-c2ccc(/C=C/c3ccc(C)cc3)cc2)nc2ccc(F)cc12`, in the series on 3T3-L1 [1] (time 72.0 hrs), the result was inactive. In the series with 3T3-L1 [3], the Activity entry is recorded as “Toxic”.

For the compound `Cc1ccc(/C=C/c2ccc(-c3cc(C(=O)OC(C)C)c4cc(F)ccc4n3)cc2)cc1`, the outcome with 3T3-L1 [1] (time 72.0 hrs) was inactive. Further, in the series on 3T3-L1 [3], the Activity entry is on record as “Toxic”.
